In ChEMBL document CHEMBL1130814, “Synthesis of 5-thiomannose-containing oligomannoside mimics: binding abilities to concanavalin A” (Bioorg Med Chem Lett, 1998):

Experiment: Dissociation constant for binding affinity towards Concanavalin A determined by fluorescence anisotropy inhibition assay

Row | Kd | SMILES
1 | 376 µM | CO[C@H]1O[C@@H](CO[C@H]2S[C@@H](CO)[C@@H](O)[C@H](O)[C@H]2O)[C@@H](O)[C@H](O[C@H]2S[C@@H](CO)[C@@H](O)[C@H](O)[C@H]2O)[C@H]1O
2 | 18 µM | CO[C@H]1O[C@@H](CO[C@H]2S[C@@H](CO)[C@@H](O)[C@H](O)[C@H]2O)[C@@H](O)[C@H](O[C@H]2O[C@@H](CO)[C@@H](O)[C@H](O)[C@H]2O)[C@H]1O
3 | 3 µM | CO[C@H]1O[C@@H](CO[C@H]2O[C@@H](CO)[C@@H](O)[C@H](O)[C@H]2O)[C@@H](O)[C@H](O[C@H]2O[C@@H](CO)[C@@H](O)[C@H](O)[C@H]2O)[C@H]1O
4 | 1720 µM | CO[C@H]1O[C@@H](CO)[C@@H](O)[C@H](O[C@H]2S[C@@H](CO)[C@@H](O)[C@H](O)[C@H]2O)[C@H]1O
5 | 1280 µM | CO[C@H]1O[C@@H](CO[C@H]2S[C@@H](CO)[C@@H](O)[C@H](O)[C@H]2O)[C@@H](O)[C@H](O)[C@H]1O
6 | 150 µM | CO[C@H]1O[C@@H](CO[C@H]2O[C@@H](CO)[C@@H](O)[C@H](O)[C@H]2O)[C@@H](O)[C@H](O)[C@H]1O
7 | 49 µM | CO[C@H]1O[C@@H](CO)[C@@H](O)[C@H](O[C@H]2O[C@@H](CO)[C@@H](O)[C@H](O)[C@H]2O)[C@H]1O
8 | 7 µM | CO[C@H]1O[C@@H](CO[C@H]2O[C@@H](CO)[C@@H](O)[C@H](O)[C@H]2O)[C@@H](O)[C@H](O[C@H]2S[C@@H](CO)[C@@H](O)[C@H](O)[C@H]2O)[C@H]1O
